This experiment has as its system fetal lung explants (E12.5). The experiment can be described thus: Eight-day fetal lung explant culture, histology and tubulin-IV immunostaining (final lung differentiation). It counts as cell-based, mouse. The protocol: FIG. 7: The effect of Wnt3A on the final lung differentiation. The lung explants were cultured for eight days in the presence of 0 ng/ml (Panels A and B), 10 ng/ml (Panel C), 50 ng/ml (Panel D), 250 ng/ml (Panel E) and 500 ng/ml Wnt3A (Panel F). After embedding, histological sections were stained with a tubulin-IV antibody to mark ciliated bronchial epithelium. In addition, the sections were counterstained with Haematoxylin and Alcian Blue, which stained the mucus secreted from the bronchial epithelium and the cartilage associated with the tracheal epithelium.
The primary antibodies used for the immunohistochemical detection was for beta-catenin; anti beta-catenin IgG, mAb, clone 14 from BD-Transduction Laboratories, for tubulin-beta mAb clone TBN05 (Tub2.1) from Neomarkers, for BrdU; anti-Bromodeoxyuridine (BrdU), mAb clone ZBU30 from Zymed Laboratories Inc.
To further determine the effect of Wnt3A upon the development and differentiation of the lung over time, fetal lung explants of isolated E12.5 were cultured with 0, 10, 50, 250, and 500 ng/ml Wnt3A for eight days. Two hours before the fixation of the lung explants, BrdU was added to the culture medium, which is incorporated in newly synthesized DNA of active proliferating cells. After the different time points, the lung explants were processed for histological analysis and immuno staining of marker genes.

Entries after “also recorded” stand apart in the source; their conditions may differ.

In the case of Wnt3a, the “effect on lung development (morphology)” value (10 ng/ml, up to eight days) is on record as “profound effects on lung development”. Further, the “flattening of the primordial epithelium to the type-I cell” value (250 ng/ml, eight days) is listed as “almost completely suppressed”. In addition, under “500 ng/ml, after one day”, the branching result is on record as “inhibitory effect upon branching”. For the same substance, under “500 ng/ml, eight days”, the branching result is “still severely suppressed”; the “differentiation of distal epithelium (alveolar and bronchiolar compartments)” value is “completely inhibited”; the “proximal structures (tubulin-IV, Haematoxylin and Alcian Blue)” value was “consist completely of proximal structures; also recorded: abundance of bronchial epithelium, mucus and cartilage”. Moreover, the “alveolarization of the distal epithelium / flattened epithelium (alveolar-type-I cells)” value (10 to 250 ng/ml (to 500 ng/ml in FIG. 7), eight days) was “decreasing alveolarization of the distal epithelium; also recorded: loss of flattened epithelium (alveolar-type-I cells) with increasing dosage”.

(Values after patent US20100203634A1, “Inhibition of stem cell differentiation, enhancement of proliferation and selective induction of apoptosis by Wnt factors” (DeltaCell B.V., priority 2003, published 2010).)
